Where two headings read alike, the source gives them in different places.
Assays:
Assay type in all cases: physicochemical
[1] = Total degradation products of porcine insulin formulations by C18 reverse-phase HPLC
Experimental: Six test formulations were prepared at proline concentrations of 0, 1.6 M and 2.8 M with acetone concentrations at 0 and 3 mg/ml, as listed in the following table. Those test formulations were stored at room temperature in the dark. At times, aliquots were withdrawn to be analyzed on C18 reverse-phase HPLC to measure total degradation products, as summarized in the table below.

[2] = Visual precipitation of insulin solutions stored at room temperature in the dark
Experimental: Insulin was dissolved in 0.10 N hydrochloric acid (5 μL per milligram of insulin) and made into a series of solutions at its concentration of 4.0 mg/ml with various additives, and the pH was adjusted to pH 7.4 using 0.05 N sodium hydroxide. Samples were kept at room temperature (25° C.) in the dark.
Zinc-free recombinant human insulin (16 mg) was dissolved in 0.10 N hydrochloric acid (70 microliters), and to this insulin was added 6.0 ml of the above proline solution. This stock solution was further made into a series of solutions at its concentration of 2.0 mg/ml with various additives at pH 7.4. Samples were kept at room temperature (25° C.) in the dark.
After six months, there were no precipitates visible at the bottom, and the solutions were all visually clear. As shown in Example 1 above, insulin without proline forms precipitates in a few days.
Repeat preparation as in Example 2 at proline concentration of 1.0 M, 1.5 M, 2.4 M and 7.0 M, without glycerol and m-cresol. All samples were stored at room temperature in the dark over six month to find no visible insulin precipitate.

[3] = Covalent insulin dimers quantified by SEC HPLC during storage; settings: zinc-free insulin and zinc-insulin with EDTA, Example 4
Experimental: A group of stock solutions were prepared: proline (6.25 M) in water, EDTA (0.10 M, pH 7.4), glycerol(320 mg/ml) containing m-Cresol (25 mg/ml) in water, sodium insulin(10 mg/ml) in phosphate buffer (25 mM, pH 7.4). Eight formulations were prepared using those stock solutions as in the table below.
All the eight formulations were kept at room temperature in the dark. At times, aliquots were withdrawn for HPLC analysis (Injection volume: 0.10 ml).
During the storage, covalent insulin dimers were quantified by SEC HPLC, and the results are summarized below.
Column: Protein Pak, 125 Å, Waters, WAT084601
Mobile Phase: 20% Acetonitrile, 15% acetic acid, 65% water

For `CC(C)=O` [acetone], the “Effect on total amount of degradation side products” value ([1]; porcine insulin, period of 8 weeks, Example 5) was “further enhances the stabilizing effect of proline”.

For `N=C(N)NCCC[C@H](N)C(=O)O` [arginine], the “Effect of arginine on precipitation of monomeric insulin” value ([2]; arginine at 0.5 M, Example 1) was “has ability to deter monomeric insulin from precipitation”.

With `O=C(O)[C@@H]1CCCN1` [proline] the “Effect of proline on precipitation of monomeric insulin” value ([2]; proline 2.4 M, Example 2) was “ability to deter monomeric insulin from precipitation”, the “Effect on formation of high molecular weight insulin degradation side products” value [3] was “reduces formation of high molecular weight insulin degradation side products” and the “Effect on total amount of degradation side products” value [1] was “reduces total amount of degradation side products”.

Source: patent publication US20140024582A1, “STABLE INSULIN FORMULATIONS AND METHODS OF MAKING AND USING THEREOF” (Genecopoeia, Inc., priority 2010, published 2014)
